Test results taken from patent US8633161B2, “Therapeutic agents for the treatment of leukemia” (The Ohio State University Research Foundation, priority 2005, dated 2014).
Structures can show the parent of a compound that is named as a salt. Where two headings read alike, the source gives them in different places. Values belong to the molecule of their own block, whether it stands above or below them. Square brackets hold non-standard residues; d marks the D form. Peptide text beside a SMILES is read from it. * marks the point of attachment. Myristoyl = CCCCCCCCCCCCCC(=O)*; Nle = CCCC[C@H](N)C(=O)O

Experiments:
[1] = system: BCR/ABL; assay: Western blot of BCR/ABL activity (phosphotyrosine) and expression; format: cell-based; details: for BCR/ABL activity and expression: HA-PP2Ac-transduced 32D-BCR/ABL cells, okadaic acid 0.25 nM, 1 hr; for EC50: 18-24 hr, read-out: EC50 of downregulation of BCR/ABL
Method: Cells (10^7) were lysed in 100 μl of RIPA buffer (150 mM NaCl, 1% NP-40, 0.1% SDS, 50 mM Tris [pH 8.0]) supplemented with 1 mM PMSF, 25 μg/ml aprotinin, 10 μg/ml leupeptin, 100 μg/ml pepstatin A, 5 mM benzamidine, 1 mM Na3VO4, 50 mM NaF, 10 mM β-glycerol-phosphate. After incubation on ice (30 min), lysates were clarified (12,000×g, 15 min, 4° C.), denatured, and subjected to SDS-PAGE and Western blot (Iervolino et al., 2002). The antibodies used were goat polyclonal anti-SET(I2PP2A), -pp32(I1PP2A), and -hnRNP A1 and rabbit polyclonal anti-SHP-1 (Santa Cruz Biotechnology); monoclonal anti-Abl (Ab-3), -c-myc (Ab-2), -phosphotyrosine PY20 (Ab-4), and -pBAD^S112 (Ab-1) (EMD); monoclonal anti-hnRNP A1 (9H10) (G. Dreyfuss, University of Pennsylvania, Philadelphia, Pa.); monoclonal anti-GRB2 and -Rb (BD TransLab Inc.); monoclonal anti-HA (Covance); monoclonal anti-PP2Ac, clone 1D6 (Upstate Inc.); monoclonal anti-FLAG, clone M2 (Sigma); monoclonal anti-pERK^T202/Y204 and rabbit polyclonal anti-pAKT^T308, pSTAT5^Y694, -pJak2^Y1007/1008, -Jak2, -BAD, -Akt, and -ERK1/2 (Cell Signaling Technology Inc.); monoclonal anti-STATS (Invitrogen); rabbit monoclonal anti-pPP2A^Y307 (Epitomics); rabbit polyclonal anti-PR65/A (Calbiochem). IPs were carried out in 20 mM HEPES (pH 7.0), 150 mM NaCl, and 0.2% NP-40 supplemented with protease and phosphatase inhibitors. Lysates were precleared and immunoprecipitated with Ab-coated beads for 3 hr at 4° C. After washings, IPs were subjected to SDS-PAGE and Western blot.

[2] = system: Akt; assay: Western blot of phosphorylated and total Akt; format: cell-based; details: okadaic acid (0.25 nM) added to FTY720
[3] = target: T1, PP2A (Mus musculus, UniProt P63330); assay: PP2A IP phosphatase assay on lysates of treated cells; format: cell-based
T1 construct: endogenous in cells; host or cells: 32Dc13, 32D-BCR/ABL, 32D-BCR/ABL-T315I, 32D-p210 Y253H, BaF3-p210 T315I, K562, primary CML-BC CD34+ and NBM CD34+ cells
Method: PP2A phosphatase assays were carried out using the PP2A IP phosphatase assay kit (Upstate). Briefly, protein lysates (50 μg) in 100 μl of 20 mM HEPES (pH 7.0)/100 mM NaCl, 5 μg of PP2Ac antibody (Upstate), and 25 μl of Protein A-agarose were added to 400 μl of 50 mM Tris (pH 7.0)/100 mM CaCl2, and IPs were carried out at 4° C. for 2 hr. IPs were washed and used in the phosphatase reaction according to the manufacturer's protocol. Specificity of the PP2A assay was assessed by titration with okadaic acid and by ascertaining the absence of PP1a in the PP2A immunoprecipitates (Figure S2A). As internal control, the amount of immunoprecipitated PP2A was also monitored by anti-PP2Ac Western blots (Figure S2B).

[4] = i.p.; cited from earlier work
[5] = system: imatinib-sensitive and -resistant BCR/ABL+ cell lines; assay: Methylcellulose colony formation of BCR/ABL cell lines; format: cell-based
Method: (§1) Methylcellulose colony formation assays were carried out by plating 103 or 5×10^4 cells from BCR/ABL cell lines or primary human CML and mouse BMC, respectively, in 0.9% MethoCult H4230 (Stem Cell Technologies Inc.). Where indicated, cells were plated in the presence of rhIL-3 (100 ng/ml) or rhG-CSF (25 ng/ml). Colonies (>125 μm) from cell lines and primary cells were scored 7 and 15 days later, respectively.

[6] = system: BCR/ABL+ cell lines and primary CML-BC CD34+ cells; assay: Growth and apoptosis (annexin V) in liquid culture of BCR/ABL+ cells; format: cell-based; details: after 48 hr of forskolin treatment
[7] = system: 32D-BCR/ABL cells; details: for mice still alive: 15 weeks postinjection
[8] = system: BCR/ABL-transduced wild-type and SHP-1-deficient CD34+ mouse marrow cells; assay: Clonogenic assay of BCR/ABL-transduced mouse CD34+ marrow cells; format: cell-based; details: forskolin 40 μM
Method: Normal murine hematopoietic marrow cells were obtained from the femurs of wild-type and SHP-1-deficient “viable moth eaten” mice (The Jackson Laboratory). After hypotonic lysis and Ficoll separation, cells were used for the isolation of the CD34+/lin− fraction (Miltenyi Biotech). […] Pear, University of Pennsylvania, Philadelphia, Pa.). GFP+ (Iervolino et al., 2002) wild-type and SHP-1−/− CD34+ cells (10^6) were treated or not with forskolin (40 μM; 48 hr) and used in clonogenic assay or processed for Western blot. Where indicated, cells were treated with the following: […] Methylcellulose colony formation assays were carried out by plating 103 or 5×10^4 cells from BCR/ABL cell lines or primary human CML and mouse BMC, respectively, in 0.9% MethoCult H4230 (Stem Cell Technologies Inc.). Where indicated, cells were plated in the presence of rhIL-3 (100 ng/ml) or rhG-CSF (25 ng/ml).

[9] = system: NBM CD34+ cells; assay: Methylcellulose colony formation of normal CD34+ marrow cells; format: cell-based, human; details: NBM CD34+ cells (normal CD34+ myeloid progenitors)
Method: The Ph^1 K562, the BCR/ABL-expressing 32Dc13 and BaF3 cells, and their derivative lines were maintained in culture in IMDM/10% FBS/2 mM L-glutamine. The SET shRNA-, HA-PP2Ac-, and HA-PP2Ac/FLAG-SET-expressing cells were generated by retroviral infection followed by either antibiotic-mediated selection or FACS-mediated sorting of the GFP+ (green fluorescent protein) cells as described (Perrotti et al., (2002), Nat. Genet. 30:48-58). The following cells were kind gifts: 32D-p210^Y253H (B. Calabretta; TJU, Philadelphia, Pa.); BaF3-p210^T315I (B. Druker; OHSU, Portland, Oreg.); TonB210.1 (G. Daley; Harvard University, Cambridge, Mass.). Frozen samples of CD34+ bone marrow cells (NBM) from different healthy donors were from AllCells LLC (Berkeley, Calif.). […] Erythroid differentiation of K562 and derivative cell lines was assessed by o-Dianisidine (Fast Blue B; Sigma) staining of methylcellulose colonies. […]
as §1, with “Where indicated, cells were plated in the presence of rhIL-3 (100 ng/ml) or rhG-CSF (25 ng/ml).” left out

[10] = system: 32D-BCR/ABL (T315I) cells; details: for treated mice BCR/ABL negative and alive 18 weeks after cell injection: after 4 weeks from restarting therapy
[11] = BCR/ABL+ cell lines and CML-BC CD34+ marrow blasts, exposure 18-24 hr, forskolin 40 μM
[12] = PP2A-expressing 32D-BCR/ABL cells, 25 μM, 8 hr

Molecule: O.O.O.O.O.O.O.O.O.O=C([O-])[C@@H]1[O][Sb]2([O-])([O][Sb]34([OH])[O][C@H]([C@H](O)CO)[C@H]([O]3)[C@H](C(=O)[O-])[O]4)[O][C@H]([C@H](O)CO)[C@@H]1[O]2.[Na+].[Na+].[Na+] [sodium stibogluconate]
BCR/ABL phosphorylation ([1]; SET shRNA- and HA-PP2A-expressing 32D-BCR/ABL cells): restored

Molecule: C=C1[C@@H](O)[C@@H]2O[C@]3(CC[C@H](/C=C/[C@@H](C)[C@@H]4CC(C)=C[C@@]5(O[C@H](C[C@@](C)(O)C(=O)O)CC[C@H]5O)O4)O3)CC[C@H]2O[C@@H]1[C@@H](O)C[C@H](C)[C@H]1O[C@@]2(CCCCO2)CC[C@H]1C [okadaic acid]
apoptosis and effect on PP2A targets (e.g. Akt dephosphorylation) observed with FTY720 [2]: abrogates in part
BCR/ABL activity and expression [1]: restored

PP2A activity [3, 11]: enhanced
EC50 ([1]; imatinib-resistant cells): 25 µM
EC50 ([1]; imatinib-sensitive cells): 18 µM
Molecule: butyryl-forskolin
BCR/ABL phosphorylation [1, 11]: abolished

PP2A activity ([3]; 32D-BCR/ABL cells, 1 μM, 24 hr): restored to normal levels
PP2A activity ([3]; imatinib-resistant BaF3p210 T315I cells): did not rescue
Molecule: Cc1ccc(NC(=O)c2ccc(CN3CCN(C)CC3)cc2)cc1Nc1nccc(-c2cccnc2)n1 [imatinib, imatinib mesylate]

Molecule: C=C[C@@]1(C)CC(=O)[C@]2(O)[C@@]3(C)[C@@H](O)CCC(C)(C)[C@@H]3[C@H](O)[C@H](OC(C)=O)[C@@]2(C)O1 [forskolin]
LD50 [4]: 67 mg/kg
inhibition of clonogenic potential (average) [5]: 75%
EC50 ([1]; imatinib-resistant cells): 25 µM
EC50 ([1]; imatinib-sensitive cells): 18 µM
percentage of apoptosis (annexin V+ cells) ([6]; BCR/ABL+ cell lines): 80%
percentage of apoptosis (annexin V+ cells) ([6]; primary CML-BC cells): 95%
mice still alive ([7]; control mice that received only forskolin): 100%
mice still alive ([7]; forskolin-treated cell-injected mice): 40%
median survival ([7]; forskolin-treated mice injected with 32D-BCR/ABL cells): 8 weeks
decrease of clonogenic potential [8]: ~70%

Molecule: myristoylated-PKI(14-22)-amide (Myristoyl-SGRTGRRNA-NH2; SMILES CCCCCCCCCCCCCC(=O)N[C@@H](CO)C(=O)NCC(=O)N[C@@H](CCCNC(=N)N)C(=O)N[C@H](C(=O)NCC(=O)N[C@@H](CCCNC(=N)N)C(=O)N[C@@H](CCCNC(=N)N)C(=O)N[C@@H](CC(N)=O)C(=O)N[C@@H](C)C(N)=O)[C@@H](C)O; UniProt P61925 14-22, looked up, fragment)
forskolin-induced BCR/ABL downregulation ([1]; 4 μM, 24 hr, with forskolin): did not inhibit

Molecule: C=C[C@@]1(C)CC(=O)[C@@H]2[C@@]3(C)CCCC(C)(C)[C@@H]3[C@H](O)[C@H](OC(C)=O)[C@@]2(C)O1 [1,9-dideoxy-forskolin]
PP2A activity [3, 11]: enhanced
decrease in IL-3-dependent clonogenicity / cytokine-driven colony formation [9]: ≤ 15%
LD50 [4]: 68 mg/kg
BCR/ABL phosphorylation [1, 11]: abolished
EC50 ([1]; imatinib-resistant cells): 25 µM
EC50 ([1]; imatinib-sensitive cells): 18 µM
toxic side effects ([10]; 8 mg/kg/week i.p., 18 weeks after cell injection): no signs of toxic side effects
survival and BCR/ABL status (nested RT-PCR, peripheral blood) ([10]; 8 mg/kg/week i.p., after 4 weeks of treatment): all alive and BCR/ABL negative
treated mice BCR/ABL negative and alive 18 weeks after cell injection ([10]; of cell-injected mice): 50%
treated mice BCR/ABL negative and alive 18 weeks after cell injection ([10]; of treated mice): 100%
mice alive ([10]; after 7 weeks of treatment): 70%
remaining mice tested BCR/ABL+ ([10]; after suspension of treatment): 50%
mice relapsed and died of acute leukemia-like disease ([10]; within 4 weeks from the end of treatment): 20%

Molecule: CCCC[C@@H](C=O)NC(=O)[C@H](CC(C)C)NC(=O)[C@H](CC(C)C)NC(C)=O [ALLN] (Ac-Leu-Leu-[Nle]-aldehyde)
BCR/ABL expression [1, 12]: restored
PP2A-induced BCR/ABL tyrosine dephosphorylation [1, 12]: did not prevent

Molecule: Cn1c(=O)c2[nH]cnc2n(C)c1=O [theophylline]
BCR/ABL expression/activity ([1]; 100 μM, 24 hr): did not affect

Molecule: COC[C@@H]([C@H](O)[C@H](O)C(=O)NCC[C@H](C)c1nc(/C=C/C[C@@H]2O[C@]3(C[C@@H](O)[C@@H]2C)O[C@H]([C@H](C[C@H](O)[C@H](C)[C@H](O)[C@H](C)/C=C(C)/C(C)=C/C=C/C(C)=C\C#N)OC)[C@H](OP(=O)(O)O)C3(C)C)co1)N(C)C [calyculin A]
BCR/ABL activity and expression [1]: restored
